Data: US20260345590A1, “COMBINATIONS OF ESTROGEN RECEPTOR DEGRADERS AND AKT INHIBITORS” (Arvinas Operations, Inc., priority 2023, published 2026)

Key:
[1] = test system: AKT isoforms; conditions: cited from earlier work
[2] = Biopharmaceutics Classification System classification; type: physicochemical; conditions: BCS Class IV
[3] = test system: MCF7 cells; assay: Dose-Response Matrix Assay (cell viability, Cell-Titer Glo, Combenefit synergy analysis); type: cell-based; conditions: 8-point curve 100 to 0.046 nM, Day 5
Method: Cells were seeded at 2×10^3 cells in 200 μl of media per well in 96 well plates and incubated overnight at 37 °C. […] At Day 5 cell viability was measured using Cell-Titer Glo and CTG data were analyzed with the Combenefit Software (5).

[4] = target: T1, ER (Homo sapiens, UniProt P03372); assay: degradation of the ER
T1 construct: cells or constructs not described in excerpts
T1 sequence (P03372 1-595): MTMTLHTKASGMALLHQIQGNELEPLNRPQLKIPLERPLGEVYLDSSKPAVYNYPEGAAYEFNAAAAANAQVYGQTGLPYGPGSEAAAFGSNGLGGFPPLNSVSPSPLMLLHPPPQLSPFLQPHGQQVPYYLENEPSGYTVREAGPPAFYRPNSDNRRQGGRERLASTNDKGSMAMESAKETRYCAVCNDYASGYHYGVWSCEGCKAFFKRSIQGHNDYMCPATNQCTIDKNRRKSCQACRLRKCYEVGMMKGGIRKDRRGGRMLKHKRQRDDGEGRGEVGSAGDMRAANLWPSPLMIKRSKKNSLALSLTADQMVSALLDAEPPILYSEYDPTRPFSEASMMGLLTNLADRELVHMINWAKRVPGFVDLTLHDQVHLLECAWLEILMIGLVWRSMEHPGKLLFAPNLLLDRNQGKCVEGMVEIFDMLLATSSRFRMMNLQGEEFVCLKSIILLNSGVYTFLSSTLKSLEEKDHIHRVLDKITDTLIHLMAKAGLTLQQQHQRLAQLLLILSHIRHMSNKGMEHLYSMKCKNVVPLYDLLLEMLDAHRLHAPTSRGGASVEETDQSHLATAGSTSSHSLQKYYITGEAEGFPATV

[5] = exposure of epimer Compound C relative to Compound A (preclinical data); type: in vivo

NC1(C(=O)N[C@@H](CCO)c2ccc(Cl)cc2)CCN(c2ncnc3[nH]ccc23)CC1 [Capivasertib, 4-amino-N-[(1S)-1-(4-chlorophenyl)-3-hydroxypropyl]-1-(7H-pyrrolo[2,3-d]pyrimidin-4-yl)piperidine-4-carboxamide]
binding to and inhibition of AKT isoforms [1]: binds to and inhibits all AKT isoforms

O=C1CC[C@H](N2Cc3cc(N4CCN(CC5CCN(c6ccc([C@@H]7c8ccc(O)cc8CC[C@@H]7c7ccccc7)cc6)CC5)CC4)ccc3C2=O)C(=O)N1 [Compound A, (S)-3-(5-(4-((1-(4-((1R,2S)-6-hydroxy-2-phenyl-1,2,3,4-tetrahydronaphthalen-1-yl)phenyl)piperidin-4-yl)methyl)piperazin-1-yl)-1-oxoisoindolin-2-yl)piperidine-2,6-dione]
permeability [2]: low permeability
solubility [2]: low solubility
synergy on cell viability ([3]; combination with afuresertib): evidence of synergy
synergy on cell viability ([3]; combination with capivasertib): evidence of synergy

Cn1ncc(Cl)c1-c1cc(C(=O)N[C@H](CN)Cc2cccc(F)c2)sc1Cl [Afuresertib, N-[(2S)-1-amino-3-(3-fluorophenyl)propan-2-yl]-5-chloro-4-(4-chloro-2-methyl-3-pyrazolyl)-2-thiophenecarboxamide]
mode of AKT kinase inhibition [1]: reversible, ATP-competitive
pan-AKT kinase inhibition potency ([1]; reversible, ATP-competitive): low-nanomolar

O=C1CC[C@@H](N2Cc3cc(N4CCN(CC5CCN(c6ccc([C@@H]7c8ccc(O)cc8CC[C@@H]7c7ccccc7)cc6)CC5)CC4)ccc3C2=O)C(=O)N1 [Compound C]
degradation of the ER [4]: does not degrade the ER
exposure of Compound C compared to Compound A [5]: < 26%
